From patent US9358276B2, “Methods of diagnosing and treating small intestinal bacterial overgrowth (SIBO) and SIBO-related conditions” (Cedars-Sinai Medical Center, priority 1999, dated 2016)
Several values for one entry are separate records, joined by “and”; a condition that tells them apart may be missing. Equal values may be shown once.

Key:
Assay type in all cases: in vivo, human
upper gut transit = test: Upper gut transit time by lactulose breath hydrogen test after oleate or oleic acid; conditions: five patients with persistent diarrhea
Excerpt: In a preliminary study, five patients with persistent diarrhea for 3 to 22 months, (one each due to vagal denervation, ileal resection for Crohn's disease, and vagotomy and antrectomy, and two due to idiopathic causes) were studied. […] This test relies on the metabolism of certain carbohydrate materials (e.g. lactulose) by the microbial flora within the caecum. By generating gas which can be detected in the expired air, it is possible to make some estimation about the initial arrival of the administered material within the colon.
Each patient received orally in random order, 0, 1.6 or 3.2 g of sodium oleate in 25 mL Ensure (Ross), followed by 100 mL water. Thirty minutes after each dose of oleate, patients received 10 g lactulose orally, followed by 25 mL water. Breath samples were collected in commercially available breath testing bags (Quintron, Menomonee Falls, Wis.) every 10-15 minutes, and the hydrogen content of the samples was measured using a breath analyzer (Microlyzer Model 12, Quintron Instruments, Menomonee Falls, Wis.), calibrated against gas samples of known hydrogen concentration. With a syringe, a 40-mL sample of the expired breath was withdrawn from the collection bag and analyzed immediately for hydrogen concentration (ppm). The hydrogen concentration value from each sample was plotted against time. Upper gut transit time was defined as the time in minutes from ingestion of lactulose (t0) until a rise of H2 of >10 ppm. Data were further analyzed using 1-way repeated measures analysis of variance (ANOVA)(See Table 4).
The effect of an active lipid on transit time was determined in 8 normal human subjects (1 male and 7 females with a mean age of 35±2.6 years [SE]) and 45 patients (20 males and 25 females with a mean age of 49.1±2.5 [SE], age range from 18 to 90 years) with chronic diarrhea (i.e., continuous diarrhea for more than two months) associated with a wide variety of diagnoses and conditions (e.g., Crohn's disease; irritable bowel syndrome; short bowel syndrome; Indiana pouch; AIDS; ulcerative colitis; vagotomy; antrectomy; ileostomy; partial and complete colectomy; colon cancer; diabetes mellitus type 1; pancreatic insufficiency; radiation enteropathy; esophagectomy/gastric pull-up; total and subtotal gastrectomy; gastrojejunostomy), made by referring gastroenterologists. The method was the same as described above, except oleic acid (Penta Manufacturing, Livingston, N.J.) replaced sodium oleate in 50 mL of Ensure emulsion. All subjects refrained from taking antibiotics for at least two weeks before each testing date and during stool measurement periods. Patients were also instructed to refrain from anti-diarrheal drugs, laxatives, somatostatin analogues or anticholinergics for at least 48 hours before each test. In both the normal and patient groups, there was a significant slowing of upper gut transit time in response to oleic acid, as summarized in Table 5 below (p<0.001).

SIBO [1] = test: Comparison of antibiotic regimes for eradicating SIBO, follow-up lactulose breath hydrogen test (LBHT)
Procedure: Subjects were tested after an overnight fast. […] Each breath sample was then analyzed for hydrogen content with a gas chromatograph (Quintron Model DP, Quintron Instrument Co., Division of E.F. Brewer Co, Menomonee Falls, Wis. 53051), standardized using a QuinGas standard as instructed by the manufacturer. Hydrogen peaks were plotted before and after an antimicrobial treatment regimen for comparison. The normal range for the second hydrogen peak was 0 to 20 ppm. Subjects referred to the Cedars-Sinai GI Motility Program for a lactulose breath hydrogen test (LBHT) to assess SIBO were entered into a database. Those that tested positive for SIBO were given antibiotic treatment by their referring physician and in some cases, returned for a follow-up LBHT to assess eradication of SIBO. During the follow-up LBHT, subjects were asked which antibiotic they were given to treat their SIBO. The eradication rate of each antibiotic was evaluated. Of the 771 subjects in the database, 561 (73%) tested positive for SIBO. […] (See Table 1 below). […] None of the commonly used antibiotics was universally successful in eradicating overgrowth.

SIBO [2] = test: Case: multiple sclerosis with SIBO, neomycin; conditions: one patient
Excerpt: A suspected diagnosis of multiple sclerosis had been made by a neurologist was based on various neuropathies of the peripheral nervous system, including numbness, tingling, and weakness in the lower extremities, but this subject also had associated bloating, gas, distension and alteration in bowel habits. The subject also complained of a significant fatigue and nausea. The subject underwent LBHT, which detected SIBO. […] They no longer had numbness or tingling in the hands or feet and was functioning quite well.

SIBO [3] = test: Antibiotic treatment of Crohn's disease subjects with SIBO
Procedure: To correct for selection bias, a pilot study was conducted to determine the incidence of SIBO in subjects who had received a suspected diagnosis of Crohn's disease at Cedars-Sinai Medical Center=s IBD Center within the preceding three months.

[4] = Crohn's subjects, pooled over the named antibiotics

Compound	Transit time (mean ± SE) (upper gut transit; 1.6 g sodium oleate in 25 mL Ensure) [min]	Transit time (mean ± SE) (upper gut transit; 3.2 g sodium oleate in 25 mL Ensure) [min]	success in eradicating SIBO, comparison of antibiotics (SIBO [1]; 105 subjects with follow-up LBHT)	% Patients with SIBO Eradicated (SIBO [1]; follow-up LBHT) [%]	time to relapse of symptoms after initial response (SIBO [2])	nausea, fatigue, bloating, gas distension and alteration in bowel habits (SIBO [2]; first treatment)	neuropathies (SIBO [2]; first treatment)	symptoms upon re-treatment (SIBO [2]; re-treatment 500 mg twice daily for 10 days)	eradication of bacterial overgrowth (SIBO [2]; 500 mg twice daily for 10 days)	improvement in symptoms, breath test negative after antibiotic (SIBO [3]; [4]) [%]	improvement in symptoms, subjects remaining positive on breath test after antibiotic (SIBO [3]; [4]) [%]	eradication of SIBO (LBHT) (SIBO [3]; nine Crohn's patients)	overall improvement in symptoms by VAS (SIBO [3]; nine Crohn's patients (n=8 reporting), 10-day course of 500 mg twice/daily) [%]	eradication of SIBO (post-treatment LBHT) (SIBO [3]; pilot study, both subjects)	overall improvement in symptoms (SIBO [3]; pilot study, two subjects, respectively, 10-day course)
CCCCCCCC/C=C\CCCCCCCC(=O)[O-].[Na+] [oleate, sodium oleate]	116 ± 11.1	140 ± 11.5	–	–	–	–	–	–	–	–	–	–	–	–	–
neomycin	–	–	most successful	55	6-8 weeks	complete resolution	dramatic improvement and resolution	complete resolution of their symptoms	at least partially eradicated	69±27	20±0	at least partially eradication of SIBO	57±32	completely at least partially eradicated	60% and 80%
